Each structure is given as a SMILES string.

The subject of the first assay is MCF7. Kind of assay: Cytotoxicity against human adriamycin- resistant MCF7 cells by WST-1 assay. Type of assay: functional, cell-based.
The IC50 is the concentration that gives 50% inhibition. `CC(C)=CCc1c(O)ccc2c1OC[C@H]1c3ccc4c(c3O[C@@H]21)C=CC(C)(C)O4` [ERYBREADIN B] displayed a half-maximal inhibitory concentration (IC50) of 5.6 µM.
The same measure, in the same setting: as for `CC(C)=CCc1cc2c(cc1O)OC[C@H]1c3ccc(O)c(CC=C(C)C)c3O[C@@H]21` [ERYBRAEDIN C], the figure is more than 30 µM; as for `CC(C)=CCc1cc2c(cc1O)OC[C@H]1c3ccc4c(c3O[C@@H]21)C=CC(C)(C)O4` [FOLITENOL], 10.8 µM.
`CC(C)=CCc1c(O)ccc2c1O[C@H]1c3ccc(O)cc3OC[C@@H]21` [PHASEOLLIDIN] had a half-inhibitory concentration (IC50) of more than 30 µM.
On the same count and under the same terms, as for `O=Cc1c(O)ccc2c1O[C@H]1c3ccc(O)cc3OC[C@@H]21` [ERYTHRIBYSSIN B], the figure is more than 30 µM; as for `C[C@H]1[C@H](C)CC[C@]2(C(=O)O)CC[C@]3(C)C(=CC[C@@H]4[C@@]5(C)CC[C@H](O)C(C)(C)[C@@H]5CC[C@]43C)[C@H]12` [URSOLIC ACID], more than 30 µM; as for `COc1ccc2c(c1CC=C(C)C)O[C@H]1c3ccc(O)cc3OC[C@@]21OC` [ERYTHRIBYSSIN A], 16.1 µM.
On to `COc1ccc2c(c1CC=C(C)C)O[C@H]1c3cc(CC=C(C)C)c(O)cc3OC[C@@]21O` [ERYSTAGALLIN A], for which the IC50 is more than 30 µM.

A further assay deals with MDA-MB-231. Kind of assay: Cytotoxicity against human MDA-MB-231 cells by WST-1 assay. The assay is classed as functional, cell-based.
Consider `CC(C)=CCc1c(O)ccc2c1OC[C@H]1c3ccc4c(c3O[C@@H]21)C=CC(C)(C)O4` [ERYBREADIN B], for which half-maximal inhibition (IC50) required 7.7 µM.
Same read-out and setting: as for `CC(C)=CCc1cc2c(cc1O)OC[C@H]1c3ccc(O)c(CC=C(C)C)c3O[C@@H]21` [ERYBRAEDIN C], the figure is more than 30 µM; as for `CC(C)=CCc1cc2c(cc1O)OC[C@H]1c3ccc4c(c3O[C@@H]21)C=CC(C)(C)O4` [FOLITENOL], 16.7 µM.
The same measure, in the same setting: under `CC(C)=CCc1c(O)ccc2c1O[C@H]1c3ccc(O)cc3OC[C@@H]21` [PHASEOLLIDIN] stands more than 30 µM.
Still for that read-out and setting: as for `O=Cc1c(O)ccc2c1O[C@H]1c3ccc(O)cc3OC[C@@H]21` [ERYTHRIBYSSIN B], the figure is more than 30 µM.
For `C[C@H]1[C@H](C)CC[C@]2(C(=O)O)CC[C@]3(C)C(=CC[C@@H]4[C@@]5(C)CC[C@H](O)C(C)(C)[C@@H]5CC[C@]43C)[C@H]12` [URSOLIC ACID], the IC50 was more than 30 µM.
Consider `COc1ccc2c(c1CC=C(C)C)O[C@H]1c3ccc(O)cc3OC[C@@]21OC` [ERYTHRIBYSSIN A], for which 28 µM corresponded to half-maximal inhibition (IC50).
Still for that read-out and setting: under `COc1ccc2c(c1CC=C(C)C)O[C@H]1c3cc(CC=C(C)C)c(O)cc3OC[C@@]21O` [ERYSTAGALLIN A] stands more than 30 µM.

Another assay deals with T1, Tyrosine-protein phosphatase non-receptor type 1 (Homo sapiens, UniProt P18031).
T1 sequence (P18031 whole entry): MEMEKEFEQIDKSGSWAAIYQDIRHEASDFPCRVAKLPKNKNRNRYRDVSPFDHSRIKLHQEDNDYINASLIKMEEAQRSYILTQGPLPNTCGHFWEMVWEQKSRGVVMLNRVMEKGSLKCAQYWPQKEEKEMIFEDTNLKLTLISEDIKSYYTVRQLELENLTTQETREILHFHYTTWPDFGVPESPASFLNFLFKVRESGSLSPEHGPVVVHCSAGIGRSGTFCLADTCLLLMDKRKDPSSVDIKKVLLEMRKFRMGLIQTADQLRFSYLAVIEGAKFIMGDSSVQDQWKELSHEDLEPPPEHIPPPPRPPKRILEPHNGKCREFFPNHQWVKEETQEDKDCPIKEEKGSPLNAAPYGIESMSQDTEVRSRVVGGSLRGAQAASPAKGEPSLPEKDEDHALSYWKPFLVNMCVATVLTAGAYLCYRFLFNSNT
Description: Inhibition of human recombinant PTP1B assessed as p-nitrophenol production.
As to `CC(C)=CCc1c(O)ccc2c1OC[C@H]1c3ccc4c(c3O[C@@H]21)C=CC(C)(C)O4` [ERYBREADIN B], the IC50 came out at 4.2 µM.
With `CC(C)=CCc1cc2c(cc1O)OC[C@H]1c3ccc(O)c(CC=C(C)C)c3O[C@@H]21` [ERYBRAEDIN C], the IC50 was more than 30 µM.
On the same count and under the same terms, as for `CC(C)=CCc1cc2c(cc1O)OC[C@H]1c3ccc4c(c3O[C@@H]21)C=CC(C)(C)O4` [FOLITENOL], the figure is 7.8 µM; as for `CC(C)=CCc1c(O)ccc2c1O[C@H]1c3ccc(O)cc3OC[C@@H]21` [PHASEOLLIDIN], more than 30 µM; as for `O=Cc1c(O)ccc2c1O[C@H]1c3ccc(O)cc3OC[C@@H]21` [ERYTHRIBYSSIN B], more than 30 µM.
In the case of `COc1ccc2c(c1CC=C(C)C)O[C@H]1c3ccc(O)cc3OC[C@@]21OC` [ERYTHRIBYSSIN A], the IC50 stood at 19.3 µM.
Regarding `COc1ccc2c(c1CC=C(C)C)O[C@H]1c3cc(CC=C(C)C)c(O)cc3OC[C@@]21O` [ERYSTAGALLIN A], the IC50 came out at 20.8 µM.

The test system of a further assay is MCF7. Kind of assay: Cytotoxicity against human MCF7 cells by WST-1 assay. The assay is classed as functional, cell-based. Background: Formazan colour is commonly taken as a measure of viable cells.
In turn, `CC(C)=CCc1c(O)ccc2c1OC[C@H]1c3ccc4c(c3O[C@@H]21)C=CC(C)(C)O4` [ERYBREADIN B] came in with an IC50 of 11.8 µM.
Regarding `CC(C)=CCc1cc2c(cc1O)OC[C@H]1c3ccc(O)c(CC=C(C)C)c3O[C@@H]21` [ERYBRAEDIN C], the IC50 is more than 30 µM.
Molecule `CC(C)=CCc1c(O)ccc2c1O[C@H]1c3ccc(O)cc3OC[C@@H]21` [PHASEOLLIDIN] displayed an IC50 of more than 30 µM.
Still for that read-out and setting: under `O=Cc1c(O)ccc2c1O[C@H]1c3ccc(O)cc3OC[C@@H]21` [ERYTHRIBYSSIN B] stands more than 30 µM; under `CC/C(=C(\c1ccccc1)c1ccc(OCCN(C)C)cc1)c1ccccc1` [TAMOXIFEN], 11.4 µM; under `C[C@H]1[C@H](C)CC[C@]2(C(=O)O)CC[C@]3(C)C(=CC[C@@H]4[C@@]5(C)CC[C@H](O)C(C)(C)[C@@H]5CC[C@]43C)[C@H]12` [URSOLIC ACID], more than 30 µM.
Same read-out and setting: under `COc1ccc2c(c1CC=C(C)C)O[C@H]1c3ccc(O)cc3OC[C@@]21OC` [ERYTHRIBYSSIN A] stands 19.4 µM; under `COc1ccc2c(c1CC=C(C)C)O[C@H]1c3cc(CC=C(C)C)c(O)cc3OC[C@@]21O` [ERYSTAGALLIN A], more than 30 µM.

The next assay deals with MCF7. Description: Cytotoxicity against human tamoxifen-resistant MCF7 cells by WST-1 assay. The assay is classed as functional, cell-based.
With `CC(C)=CCc1c(O)ccc2c1OC[C@H]1c3ccc4c(c3O[C@@H]21)C=CC(C)(C)O4` [ERYBREADIN B], the midpoint of inhibition, the IC50, lay at 6.2 µM.
Same read-out and setting: under `CC(C)=CCc1cc2c(cc1O)OC[C@H]1c3ccc(O)c(CC=C(C)C)c3O[C@@H]21` [ERYBRAEDIN C] stands more than 30 µM; under `CC(C)=CCc1cc2c(cc1O)OC[C@H]1c3ccc4c(c3O[C@@H]21)C=CC(C)(C)O4` [FOLITENOL], 18.8 µM.
For `CC(C)=CCc1c(O)ccc2c1O[C@H]1c3ccc(O)cc3OC[C@@H]21` [PHASEOLLIDIN], the IC50 was more than 30 µM.
On the same count and under the same terms, as for `O=Cc1c(O)ccc2c1O[C@H]1c3ccc(O)cc3OC[C@@H]21` [ERYTHRIBYSSIN B], the figure is more than 30 µM; as for `C[C@H]1[C@H](C)CC[C@]2(C(=O)O)CC[C@]3(C)C(=CC[C@@H]4[C@@]5(C)CC[C@H](O)C(C)(C)[C@@H]5CC[C@]43C)[C@H]12` [URSOLIC ACID], more than 30 µM.
For the molecule `COc1ccc2c(c1CC=C(C)C)O[C@H]1c3ccc(O)cc3OC[C@@]21OC` [ERYTHRIBYSSIN A], the concentration for half-maximal inhibition (IC50) was 12 µM.
Still for that read-out and setting: as for `COc1ccc2c(c1CC=C(C)C)O[C@H]1c3cc(CC=C(C)C)c(O)cc3OC[C@@]21O` [ERYSTAGALLIN A], the figure is more than 30 µM.

(Values after ChEMBL document CHEMBL1154360, “Cytotoxic and PTP1B inhibitory activities from Erythrina abyssinica” (Bioorg Med Chem Lett, 2009).)
